Data on 11 compounds can be found in patent publication US20220009894A1, “1,2,3,4-TETRAHYDROQUINOXALINE DERIVATIVE, PREPARATION METHOD THEREFOR AND APPLICATION THEREOF” (Abbisko Therapeutics Co., Ltd., priority 2019, published 2022).

Each structure is given as a SMILES string.

One assay has as its target T1, RORγt (Homo sapiens, UniProt P51449).
T1 construct: The plasmid of pFN26A-RORγt-LBD and pG14.35 (Promega, Cat. No. E1370) were co-transfected into HEK 293 cells; expressed in transfected cells; host or cells: HEK 293 cells (Cat. No. GNHu18)
T1 sequence (P51449 269-508 limits assumed): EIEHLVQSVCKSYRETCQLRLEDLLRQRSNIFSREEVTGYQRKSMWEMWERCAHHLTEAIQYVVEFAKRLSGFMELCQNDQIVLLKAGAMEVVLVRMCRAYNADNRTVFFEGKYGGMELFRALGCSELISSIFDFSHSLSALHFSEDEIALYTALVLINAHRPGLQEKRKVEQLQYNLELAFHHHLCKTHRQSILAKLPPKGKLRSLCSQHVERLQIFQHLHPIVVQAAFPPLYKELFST
The assay is described as follows: RORγt cellular reporter gene detection assay.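 On Cellular Reporter Assay Amax: Ursolic Acid added as 5 µL of 20 µM medium per well.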 Type of assay: cell-based. To be noted: 24 hrs; for EC50: HEK 293 cells co-transfected with pFN26A-RORγt-LBD and pG14.35, in presence of antagonist Ursolic acid, top concentration 50 μM; for Cellular Reporter Assay Amax: upper activation limit, HEK 293 cells, in presence of antagonist Ursolic acid. On the procedure: II. RORγt Cellular Reporter Gene Detection Assay
In this experiment, RORγt Reporter Gene Detection method was used to evaluate the activation and specificity of compounds to RORγt in cells. The plasmid of pFN26A-RORγt-LBD and pG14.35 (Promega, Cat. No. E1370) were co-transfected into HEK 293 cells (Cat. No. GNHu18). The efficacy of compounds was evaluated with the presence of an antagonist Ursolic acid (Selleck, Cat. No. S2370-100 mg). The specific experimental process was as follow: • 1. The plasmids-co-transfected cells were inoculated into a 96-well plate (Corning, Cat. No 3610) in a fresh DMEM medium (Gibco, cat. No. 1773536) containing 10% fetal bovine serum (Gibco, Cat. No. 10099-141) at 30000 cells/40 μL/well; • 2. 5 μL of medium containing 20 μM Ursolic acid was added thereto; • 3. The dose effect was evaluated by a 4-fold dilution of the test compound starting from 50 μM; • 4. 5 μL of medium containing a compound concentration of 10-fold of its final test concentration was added; • 5. After the cells were incubated at 37° C. and 5% CO2 for 24 hrs, 50 μL of detection reagent was added to detect firefly fluorescence using PerkinElmerEnVision, and 50 μL of the second detection reagent was added to detect sea kidney fluorescence; • 6. A four-parameter curve simulated in GraphPad Prism was used to determine the concentration for 50% activation (EC50) and the upper activation limit (Amax) for each compound.
(In general: Reporter assays use an easily measured gene product as a stand-in for the process of interest.)

In another assay the target is T2, RORγt-LBD (Homo sapiens, UniProt P51449).
T2 sequence (P51449 269-508 limits assumed): T1 sequence (P51449 269-508 limits assumed)
The assay is described as follows: Time-resolved fluorescence resonance energy-transfer assay (TR-FRET), co-activator peptide recruitment. The class given is biochemical. Also noted: TR-FRET Biochemical Amax: unit not given here. Particulars: for EC50: His-RORγt-LBD 30 nM, SRC peptide 500 nM, agonistic activity, averages of one or more measurements, read-out: TR-FRET Biochemical EC50/; for TR-FRET Biochemical Amax: upper activation limit, His-RORγt-LBD, SRC peptide. The source says:
I. Time-Resolved Fluorescence Resonance Energy-Transfer Assay (TR-FRET)
This experiment was a screening experiment for RORγt nuclear receptor agonists based on TR-FRET technology. When His-labeled RORγt-LBD receptor binds to receptor agonists, it may increase the recruitment of biotin-labeled co-activator peptides. Europium-His-RORγt-LBD is indirectly labeled by donor (Eu) by binding to Eu-anti-His antibody. Once Eu is activated by an energy source (such as flashlight or laser), the energy will be transferred to the co-activator indirectly labeled by allophycocyanin by binding of allophycocyanin-streptavidin and biotin-labeled co-activator. • 1. 10× buffer (500 mM Tris-HCl, 500 mM KCl, and 10 mM Na-EDTA) was prepared, pH value was adjusted to 7.0. The buffer was stored at 4° C. for later use and was restored to normal temperature before experiment; • 2. The 10× buffer was diluted to 1× with pure water. Final concentration of 0.01% Triton X-100 and 1 mM DTT (dithiothreitol) were added to prepare the assay buffer; • 3. DMSO was used to prepare 1000× compound stock solution. The compound solution was serial-diluted in 5-fold for 7 concentrations from the top concentration of 1000 nM/10000 nM. Then the 10× compound solution was prepared with assay buffer. An amount of 2 μL was aliquoted into the 20 μL system; • 4. 5×RORγt-LBD protein solution was unfreezed, and a solution of 5× concentration was prepared with assay buffer to obtain a final concentration of 30 nM. The whole operation was carried out on ice; • 5. 5×SRC peptide was unfreezed, and a solution of 5× concentration was prepared with assay buffer to obtain a final concentration of 500 nM. The whole operation was carried out on ice; • 6. 4 μL/well of RORγt-LBD receptor was added into the testing wells of 384-well plate, and the same amount of assay buffer was added to the control wells of non-RORγt-LBD group; • 7. 2 μL of compound was added into each well of 384-well plate; • 8. 4 μL of SRC peptide was added into each well of 384-well plate; • 9. 2× Eu-anti-6× His/APC-Streptavidin was diluted with Lance detection buffer to a final concentration of 0.25 nM and 5 nM, respectively, and then 10 μL of 2× Eu-anti-6× His/APC-Streptavidin was added into each well of 384-well plate; • 10. The mixed solution was incubated at 4° C. overnight; • 11. On the morning of the next day, the 384-well plate was incubated at room temperature for 1 hr. Then the corresponding signal values were read with PerkinElmer EnVision at a wavelength of 665/615 […]. The agonistic activity of the corresponding compound was calculated with Graphpad Prism 7.0 software.

For the compound `C[C@@]1(OCCC(N)=O)CCN2c3ccc(-c4cc(F)cc(OC(F)F)c4)cc3N(S(=O)(=O)c3cccc(C(F)(F)F)c3)C[C@@H]2C1` [Example 122, 3-(((6aS,8R)-3-(3-(difluoromethoxy)-5-fluorophenyl)-8-methyl-5-((3-(trifluoromethyl)phenyl)sulfo-nyl)-6,6a,7,8,9,10-hexahydro-5H-pyrido[1,2-a]quinoxalin-8-yl)oxy) propanamide], on RORγt, the EC50 amounted to 447 nM and the “Cellular Reporter Assay Amax” value was 1.1. For the same compound, on RORγt-LBD, the EC50 came to 98.4 nM and the “TR-FRET Biochemical Amax” value was found to be 0.68.

Take `O=S(=O)(c1cccc(C(F)(F)F)c1)N1C[C@@H]2CN(C(CO)CO)CCN2c2ccc(-c3cc(F)cc(OC(F)F)c3)cc21` [Example 70, (S)-2-(8-(3-(difluoromethoxy)-5-fluorophenyl)-6-((3-(trifluorometh-yl)phenyl)sulfonyl)-1,2,4,4a,5,6-hexahydro-3H-pyrazino[1,2-a]quinoxalin-3-yl)propane-1,3-diol]: at RORγt, the EC50 worked out at 531 nM and the “Cellular Reporter Assay Amax” value is on record as 4.2. Further, at RORγt-LBD, the EC50 amounted to 64.2 nM and the “TR-FRET Biochemical Amax” value amounted to 0.99.

With `COC(=O)CN1CCN2c3ccc(/C=C(\C)c4c(F)cccc4Cl)cc3N(S(=O)(=O)c3cccc(C(F)(F)F)c3)C[C@@H]2C1` [Example 44, methyl (S,E)-2-(8-(2-(2-chloro-6-fluorophenyl)prop-1-en-1-yl)-6-((3-(trifluoromethyl)phenyl)sulfonyl)-1,2,4,4a,5,6-hexahydro-3H-pyrazino[1,2-a]quinoxalin-3-yl)acetate], on RORγt, the EC50 was found to be 256 nM and the “Cellular Reporter Assay Amax” value was found to be 4.2. Moreover, on RORγt-LBD, the EC50 worked out at 23.5 nM and the “TR-FRET Biochemical Amax” value was found to be 1.04.

With `CC(C)OC(=O)CN1CCN2c3ccc(/C=C/c4c(Cl)cccc4C(F)(F)F)cc3N(S(=O)(=O)c3cccc(C(F)(F)F)c3)C[C@@H]2C1` [Example 47, isopropyl (S,E)-2-(8-(2-chloro-6-(trifluoromethyl)styryl)-6-((3-(trifluoromethyl)phenyl)sulfonyl)-1,2,4,4a,5,6-hexahydro-3H-pyrazino[1,2-a]quinoxalin-3-yl) acetate], at RORγt, the EC50 was 750 nM and the “Cellular Reporter Assay Amax” value was determined as 2.1. In addition, on RORγt-LBD, the EC50 was found to be 3.51 nM and the “TR-FRET Biochemical Amax” value came to 0.77.

Take `O=S(=O)(c1cccc(C(F)(F)F)c1)N1C[C@@H]2CC(O[C@@H]3O[C@H](CO)[C@@H](O)[C@H](O)[C@H]3O)CCN2c2ccc(-c3cc(F)cc(OC(F)F)c3)cc21` (stereo partly drawn) [Example 112, (2R,3R,4S,5S,6R)-2-(((6aS)-3-(3-(difluoromethoxy)-5-fluorophenyl)-5-((3-(trifluoromethyl)phenyl)sulfonyl)-6,6a,7,8,9,10-hexahydro-5H-pyrido[1,2-a]quinoxalin-8-yl)oxy)-6-(hydroxymethyl)tetrahydro-2H-pyran-3,4,5-triol]: on RORγt, the EC50 is 1940 nM and the “Cellular Reporter Assay Amax” value is given as 5.6. Also, on RORγt-LBD, the EC50 is 273 nM and the “TR-FRET Biochemical Amax” value came out at 0.33.

Regarding `CS(=O)(=O)N1CCN2c3ccc(-c4cc(F)cc(OC(F)F)c4)cc3N(S(=O)(=O)c3cc(C(F)(F)F)cnc3OCCO)C[C@@H]2C1` [Example 89, (S)-2-((3-((8-(3-(difluoromethoxy)-5-fluorophenyl)-3-(methylsulfonyl)-1,2,3,4,4a,5-hexahydro-6H-pyrazino[1,2-a]quinoxalin-6-yl)sulfonyl)-5-(trifluoromethyl)pyridin-2-yl)oxy)ethan-1-ol], at RORγt, the EC50 came to 1090 nM and the “Cellular Reporter Assay Amax” value was 2.7. For the same compound, on RORγt-LBD, the EC50 worked out at 0.53 nM and the “TR-FRET Biochemical Amax” value was 0.40.

Regarding `NS(=O)(=O)N1CCN2c3ccc(/C=C/c4c(Cl)cccc4C(F)(F)F)cc3N(S(=O)(=O)c3cccc(C(F)(F)F)c3)C[C@@H]2C1` [Example 68, (R,E)-8-(2-chloro-6-(trifluorometh-yl)styryl)-6-((3-(trifluorometh-yl)phenyl)sulfonyl)-1,2,4,4a,5,6-hexahydro-3H-pyrazino[1,2-a]quinoxaline-3-sulfonamide], on RORγt, the EC50 came out at 151 nM and the “Cellular Reporter Assay Amax” value amounted to 2.5. In addition, on RORγt-LBD, the EC50 was found to be 30.5 nM and the “TR-FRET Biochemical Amax” value is given as 1.03.

`CC(=O)N1CCN2c3ccc(/C=C(\C)c4c(F)cccc4Cl)cc3N(S(=O)(=O)c3cccc(C(F)(F)F)c3)C[C@@H]2C1` [Example 15, (S,E)-1-(8-(2-(2-chloro-6-fluorophenyl)prop-1-en-1-yl)-6-((3-(trifluoromethyl)phenyl)sulfonyl)-1,2,4,4a,5,6-hexahydro-3H-pyrazino [1,2-a]quinoxalin-3-yl)ethan-1-one]: on RORγt, the EC50 is 134 nM and the “Cellular Reporter Assay Amax” value worked out at 3.2. For the same compound, at RORγt-LBD, the EC50 turned out to be 25 nM and the “TR-FRET Biochemical Amax” value was determined as 0.83.

On to `COC(=O)CN1CCN2c3ccc(-c4cc(F)cc(OC(F)F)c4)cc3N(S(=O)(=O)c3cc(C(F)(F)F)cnc3OCCO)C[C@@H]2C1` [Example 90, methyl (S)-2-(8-(3-(difluoromethoxy)-5-fluorophenyl)-6-((2-(2-hydroxyethoxy)-5-(trifluoromethyl)pyridin-3-yl)sulfonyl)-1,2,4,4a,5,6-hexahydro-3H-pyrazino[1,2-a]quinoxalin-3-yl)acetate], for which, at RORγt, the EC50 is 368 nM and the “Cellular Reporter Assay Amax” value was determined as 1.8. At RORγt-LBD, the EC50 turned out to be 20.6 nM and the “TR-FRET Biochemical Amax” value was determined as 0.86.

As for `O=C(O)CN1CCN2c3ccc(/C=C/c4c(Cl)cccc4C(F)(F)F)cc3N(S(=O)(=O)c3cccc(OC(F)(F)F)c3)C[C@@H]2C1` [Example 86, (S,E)-2-(8-(2-chloro-6-(trifluoromethyl)styryl)-6-((3-(trifluoromethoxy)phenyl)sulfonyl)-1,2,4,4a,5,6-hexahydro-3H-pyrazino[1,2-a]quinoxalin-3-yl)acetic acid], on RORγt, the EC50 was found to be 2340 nM and the “Cellular Reporter Assay Amax” value was 12.6. Also, at RORγt-LBD, the EC50 was 78.4 nM and the “TR-FRET Biochemical Amax” value worked out at 0.69.

Regarding `CC1(C)C=C(c2ccc3c(c2)N(S(=O)(=O)c2cccc(C(F)(F)F)c2)C[C@@H]2CN(C[C@@H](O)CO)CCN32)CC(C)(C)O1` [Example 41, (R)-3-((S)-8-(2,2,6,6-tetrameth-yl-3,6-dihydro-2H-pyran-4-yl)-6-((3-(trifluoromethyl)phe-nyl)sulfonyl)-1,2,4,4a,5,6-hexa-hydro-3H-pyrazino[1,2-a]qui-noxalin-3-yl)propane-1,2-diol], at RORγt-LBD, the EC50 was 6.73 nM and the “TR-FRET Biochemical Amax” value was 1.01.
